The target of assay [1] is T1, rAde1R (Rattus norvegicus, UniProt Q7TN49).
T1 construct: expressed in transfected cells; host or cells: 1321N1 human astrocytoma cells
T1 sequence (Q7TN49 1-304): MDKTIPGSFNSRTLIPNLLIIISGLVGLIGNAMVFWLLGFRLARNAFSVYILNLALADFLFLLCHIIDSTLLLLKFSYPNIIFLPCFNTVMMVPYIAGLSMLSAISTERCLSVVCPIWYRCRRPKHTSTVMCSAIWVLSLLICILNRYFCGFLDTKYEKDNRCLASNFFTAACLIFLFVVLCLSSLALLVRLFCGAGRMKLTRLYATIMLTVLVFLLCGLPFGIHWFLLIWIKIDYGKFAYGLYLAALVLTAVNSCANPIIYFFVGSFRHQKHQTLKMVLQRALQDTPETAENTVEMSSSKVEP
Particulars: literature, Gorzalka et al. 2005; cited from earlier work.

In assay [2] the test system is non-transfected 1321N1 astrocytoma cells. In words: Erk phosphorylation assay (SRE-dependent luciferase), non-transfected cells. The class given is cell-based, human. Particulars: 6 h.
The target in assay [3] is T1, rAde1R. In words: Erk phosphorylation assay (SRE-dependent luciferase), 1321N1 cells expressing rAde1R. Particulars: 1321N1 astrocytoma cells stably expressing rAde1R, 6 h. It counts as cell-based. On the procedure:
(§1) 1321N1 cells stably expressing the rAde1R were cultured in DMEM supplemented with 10% (v/v) FCS, L-glutamine (2 mM), penicillin (100 U/ml), streptomycin (100 U/ml) and 400 μg/ml G 418 at 37° C. under a humidified atmosphere containing 5% CO2. Cells were cultured in 75 cm^2 flasks (3.2×10^5) for 24 h without antibiotics so that they were 90-95% confluent before transfection. The cAMP responsive reporter plasmid (pCER-luc) or serum response element (pSRE-luc) was transfected into 1321N1 cells expressing rat adenine receptors using Lipofectamine 2000 as a transfection reagent.
Erk phosphorylation was investigated by a gene reporter assay measuring SRE-dependent luciferase activity in astrocytoma cells stably transfected with the rat adenine receptor. The cells were seeded in a 24-well plate prior to the assay. The culture medium was removed and cells were washed twice with Hanks' balanced salt solution without HEPES, pH 7.3. Adenine was diluted in the same buffer and then added to the cells, which were incubated for 6 h at 37° C. The reaction was stopped by removal of the reaction buffer and the luciferase expression was determined as described before.

Assay [4] deals with T1, rAde1R. In words: cAMP-dependent luciferase assay, inhibition of isoproterenol-stimulated cAMP accumulation. It counts as cell-based. How it is done:
as §1
Reporter cells were seeded at a density of […] cells/well in a 24-well plate 18-20 hr prior to assay. After removal of culture medium, cells were washed twice with Hanks' balanced salt solution (containing 20 mM HEPES, pH 7.3). Adenine and selected adenine derivatives were diluted in Hanks' balanced salt solution containing 3 nM isoproterenol and then incubated with reporter cells in the same buffer for 3 h at 37° C. The reaction was stopped by removal of the reaction buffer and the luciferase expression was determined using Bright-Glo™ Luciferase assay system (Promega) as described in the kit protocol. Plates were shaken for 2 min to ensure complete lysis of cells. Then the total volume from each well was transferred to a white 96-well plate (Greiner bio-one). Luminescence was determined using a NOVOstar microplate reader (BMG labtech); each well was counted for 2 s at 20° C.

As to `Nc1ncnc2nc[nH]c12` [adenine], on rAde1R [1], the Ki was 29.9 nM. Further, the entries for the “SRE-dependent luciferase expression / erk phosphorylation” value (in assay [2]; at rAde1R [3]) were “no effect” and “dose-dependent stimulation of erk phosphorylation”, respectively. For the same compound, the EC50 at rAde1R [4] (in the absence of compound 9) is 2.24 ± 1.83 nM; on rAde1R [4] (in the presence of compound 9 (10 μM)) it was 115 ± 42 nM.

These data come from patent publication US20110288106A1, “ADENINE RECEPTOR LIGANDS” (Rheinische Friedrich-Wilhelms-Universitaet Bonn …, priority 2008, published 2011).
